Results taken from patent US20250109127A1, “METHODS OF USE OF PHENOXYPROPYLAMINE COMPOUNDS TO TREAT DEPRESSION” (Minerva Neurosciences, Inc., priority 2013, published 2025).
Values joined by “and” are separate entries in the source; they are usually repeats but may differ in a detail not shown here. Equal entries are not always repeated. Structures can show the parent of a compound that is named as a salt.

Legend:
[1] = test system: HVA release in the rat prefrontal cortex; test: Microdialysis: HVA release in prefrontal cortex after I.P. administration; type: in vivo; conditions: for HVA release (% of basal levels) measured in dialysates: individual animals, hydrochloride, 3 mg/kg; for HVA release (% of basal levels) measured in dialysates, MEAN / HVA (% of respective basal) MEAN: n = 8; for HVA (% of respective basal) MEAN: SON-117 group 0.1 mg/kg I.P.
Method: The aim of the study was to evaluate, using microdialysis, the effects of an intraperitoneal (I.P.) administration in rats of three different doses of SON-117 on dopamine and its metabolites, serotonin and its metabolite (5-HIAA), and norepinephrine levels in prefrontal cortex.
Thirty-two adult male Wistar rats were used for the whole study (4 groups of eight animals planned for the study, Table 1).
Surgery was performed on rats weighing about 300 g at the beginning of the experiments. Rats were anaesthetized with Ketamine (50 mg/kg) & Xylazine (15 mg/kg) by intramuscular administration. The animals were placed in a stereotaxic apparatus in the flat-skull position at a constant setting of −3.3 mm between ear bars and the incisor bar. The animals were treated with a local anesthesic (xylocaine 1%, Astra Zeneca) and an analgesic (Temgesic, from Schering Plough, 0.05 mg/kg, s.c.). A rostrocaudal midline incision was made with a lancet to expose the dorsal skull surface. The “stereotaxic zero” was defined by the Bregma in accordance with Paxinos and Watson's atlas (1986). A hole was drilled in the skull with a drill and the meninges were pierced with a sterile needle to implant a CMA12 guide cannula which later received the dialysis probe.
Coordinates used for implanting guide cannula in prefrontal cortex from Bregma were anteroposterior 3.7 mm, mediolateral 0.8 mm, and dorsoventral −2 mm (top of the probe was at −5 mm). The guide cannula was fixed to the skull with two stainless steel screws (1.88 mm outside diameter) anchored. An application of dental cement was added. A plastic collar allowed each animal to be tethered to a Swivel assembly of the CMA 120 awake animal system. Following surgery, rats were kept in individual cages and allowed to recover for a minimum of 3-5 days before the experimentation. The rats were handled and put in plastic bowl for 10 min at least every day to habituate the animals to their new environment for the dialysis. An I.P. administration with saline was also performed every day.
Dialysis probes (CMA12/3 mm, membrane, 20 kD cut-off, Carnegie Medicine, Stockholm, Sweden), were carefully washed before inserting into the guide cannula. The wash was performed with the artificial cerebrospinal fluid (aCSF) medium (NaCl 147 mM, KCl 2.7 mM, CaCl2 1.2 mM, MgCl2 0.85 mM) at room temperature. The dialysis system was then equilibrated at 20° C. at a perfusion rate of 1 μl/min with a Carnegie pump (CMA100). All catheters (FEP tubing, internal volume of 1.2 μl/10 cm, and tubing adaptors) used for microdialysis were treated in the same conditions.
The probes duly prepared were inserted into the guide cannula and the CMA120 Swivel assembly secured to the animal using a plastic collar. Flow through the dialysis probe with aCSF was maintained at a rate of 1 μl/min during the whole experimentation. The first four fractions (corresponding to 2 hours) were discarded to avoid the effects of parenchymal disturbance and to ensure that an approximate steady-state level was reached. Fractions were then collected over a period of 8.5 h during which time the animals remained quiet. The dialysates were automatically collected with an autosampler (microfraction collector CMA 140, Carnegie Medicin) and stored at −80° C. until analysis. […] Perfusion was then maintained for 7 hours with aCSF. The dialysates (30 μl) were collected into 300 μl vials, transferred into dry ice and then kept frozen (−80° C.) until analysis. Frozen samples were shipped to a partner for analysis. At the end of the microdialysis study, a PBS with colored ink was perfused through the probe in order to visualize the dialyzed area.
Catecholamine assay: Concentrations of dopamine, DOPAC, HVA, 5-HIAA, 5-HT, and norepinephrin were determined for each sample by HPLC coupled with electrochemical detection.

5-HT1A, 5-HTT, 5-HT2A = test: Electrophysiological studies; conditions: first 5-HT1A is presynaptic
[2] = SON-117 3 mg/kg IP, T1 h 30-T2 h
[3] = SON-117 3 mg/kg IP, T1 h-T1 h 30
[4] = SON-117 3 mg/kg IP, T2 h 30-T3 h
[5] = SON-117 3 mg/kg IP, T2 h-T2 h 30
[6] = SON-117 3 mg/kg IP, T3 h 30-T4 h
[7] = SON-117 3 mg/kg IP, T3 h-T3 h 30
[8] = SON-117 3 mg/kg IP, T4 h 30-T5 h
[9] = SON-117 3 mg/kg IP, T4 h-T4 h 30
[10] = SON-117 3 mg/kg IP, T5 h 30-T6 h
[11] = SON-117 3 mg/kg IP, T5 h-T5 h 30
[12] = SON-117 3 mg/kg IP, T6 h 30-T7 h
[13] = SON-117 3 mg/kg IP, T6 h-T6 h 30

SMILES: Cc1nnc(-c2cc3c(OC[C@@H](O)CN4CCC(c5ccc(Cl)c(Cl)c5)CC4)cccc3o2)o1 [SON-117, (S)-1-(4-(3,4-dichlorophenyl)piperidino)-3-(2-(5-methyl-1,3,4-oxadiazol-2-yl)benzo(b)furan-4-yloxy)-2-propanol hydrochloride]
- HVA release (% of basal levels) measured in dialysates ([1]; SON-117 3 mg/kg IP, T30-T1 h): 87.52 % of basal levels and 80.65 % of basal levels and 76.40 % of basal levels and 105.83 % of basal levels and 105.61 % of basal levels and 95.14 % of basal levels and 127.36 % of basal levels and 107.87 % of basal levels
- HVA release (% of basal levels) measured in dialysates, MEAN [1, 2]: 106.02 % of basal levels
- HVA release (% of basal levels) measured in dialysates [1, 2]: 84.71 % of basal levels and 105.56 % of basal levels and 94.73 % of basal levels and 137.50 % of basal levels and 83.65 % of basal levels and 91.30 % of basal levels and 115.23 % of basal levels and 135.51 % of basal levels
- HVA release (% of basal levels) measured in dialysates, MEAN [1, 3]: 103.62 % of basal levels
- HVA release (% of basal levels) measured in dialysates [1, 3]: 91.12 % of basal levels and 84.36 % of basal levels and 104.08 % of basal levels and 126.08 % of basal levels and 106.58 % of basal levels and 89.86 % of basal levels and 137.31 % of basal levels and 89.55 % of basal levels
- HVA release (% of basal levels) measured in dialysates, MEAN [1, 4]: 102.12 % of basal levels
- HVA release (% of basal levels) measured in dialysates [1, 4]: 105.21 % of basal levels and 84.02 % of basal levels and 95.14 % of basal levels and 119.75 % of basal levels and 76.92 % of basal levels and 96.18 % of basal levels and 146.40 % of basal levels and 93.34 % of basal levels
- HVA release (% of basal levels) measured in dialysates, MEAN [1, 5]: 98.10 % of basal levels
- HVA release (% of basal levels) measured in dialysates [1, 5]: 100.40 % of basal levels and 90.71 % of basal levels and 80.00 % of basal levels and 109.73 % of basal levels and 85.44 % of basal levels and 89.46 % of basal levels and 133.10 % of basal levels and 95.93 % of basal levels
- HVA release (% of basal levels) measured in dialysates, MEAN [1, 6]: 98.25 % of basal levels
- HVA release (% of basal levels) measured in dialysates [1, 6]: 101.22 % of basal levels and 90.35 % of basal levels and 83.39 % of basal levels and 123.68 % of basal levels and 80.06 % of basal levels and 94.85 % of basal levels and 114.56 % of basal levels and 97.90 % of basal levels
- HVA release (% of basal levels) measured in dialysates, MEAN [1, 7]: 105.01 % of basal levels
- HVA release (% of basal levels) measured in dialysates [1, 7]: 99.13 % of basal levels and 88.16 % of basal levels and 98.47 % of basal levels and 148.68 % of basal levels and 75.12 % of basal levels and 89.56 % of basal levels and 118.49 % of basal levels and 122.51 % of basal levels
- HVA release (% of basal levels) measured in dialysates, MEAN [1, 8]: 92.26 % of basal levels
- HVA release (% of basal levels) measured in dialysates [1, 8]: 94.88 % of basal levels and 58.87 % of basal levels and 92.33 % of basal levels and 106.33 % of basal levels and 75.16 % of basal levels and 112.83 % of basal levels and 123.56 % of basal levels and 74.10 % of basal levels
- HVA release (% of basal levels) measured in dialysates, MEAN [1, 9]: 99.19 % of basal levels
- HVA release (% of basal levels) measured in dialysates [1, 9]: 97.33 % of basal levels and 77.20 % of basal levels and 84.63 % of basal levels and 137.16 % of basal levels and 71.70 % of basal levels and 91.93 % of basal levels and 127.61 % of basal levels and 105.99 % of basal levels
- HVA release (% of basal levels) measured in dialysates, MEAN [1, 10]: 87.32 % of basal levels
- HVA release (% of basal levels) measured in dialysates [1, 10]: 93.31 % of basal levels and 31.10 % of basal levels and 89.25 % of basal levels and 99.64 % of basal levels and 66.49 % of basal levels and 109.12 % of basal levels and 117.65 % of basal levels and 101.69 % of basal levels
- HVA release (% of basal levels) measured in dialysates, MEAN [1, 11]: 101.76 % of basal levels
- HVA release (% of basal levels) measured in dialysates [1, 11]: 93.67 % of basal levels and 56.56 % of basal levels and 102.66 % of basal levels and 106.92 % of basal levels and 69.24 % of basal levels and 112.81 % of basal levels and 133.42 % of basal levels and 138.83 % of basal levels
- HVA release (% of basal levels) measured in dialysates, MEAN [1, 12]: 96.24 % of basal levels
- HVA release (% of basal levels) measured in dialysates [1, 12]: 84.70 % of basal levels and 71.14 % of basal levels and 87.80 % of basal levels and 117.29 % of basal levels and 74.11 % of basal levels
- HVA release (% of basal levels) measured in dialysates, MEAN [1, 13]: 88.31 % of basal levels
- HVA release (% of basal levels) measured in dialysates [1, 13]: 71.80 % of basal levels and 62.19 % of basal levels and 96.42 % of basal levels and 114.78 % of basal levels and 75.15 % of basal levels and 95.54 % of basal levels and 102.27 % of basal levels
- HVA release (% of basal levels) measured in dialysates, MEAN ([1]; SON-117 3 mg/kg IP, T-30 min-T0 (pre-administration)): 97.66 % of basal levels
- HVA release (% of basal levels) measured in dialysates, MEAN ([1]; SON-117 3 mg/kg IP, T-1 h 30-T-1 h (pre-administration)): 99.26 % of basal levels
- HVA release (% of basal levels) measured in dialysates, MEAN ([1]; SON-117 3 mg/kg IP, T-1 h-T-30 min (pre-administration)): 103.08 % of basal levels
- HVA concentration in prefrontal cortex, significant slight increase ([1]; SON-117 3 mg/kg IP, at 3.5 h): 114%
- HVA, difference to the citalopram group (two-way ANOVA) ([1]; SON-117 at the three doses tested, in function of time): no significant differences
- HVA (% of respective basal) MEAN ([1]; T0-T30 min): 101.53 % of respective basal
- HVA (% of respective basal) MEAN ([1]; T30-T1 h): 118.07 % of respective basal
- HVA (% of respective basal) MEAN ([1]; T1 h 30-T2 h): 112.1 % of respective basal
- HVA (% of respective basal) MEAN ([1]; T1 h-T1 h 30): 139.45 % of respective basal
- HVA (% of respective basal) MEAN ([1]; T2 h 30-T3 h): 111.13 % of respective basal
- HVA (% of respective basal) MEAN ([1]; T2 h-T2 h 30): 107.76 % of respective basal
- HVA (% of respective basal) MEAN ([1]; T3 h 30-T4 h): 113.38 % of respective basal
- HVA (% of respective basal) MEAN ([1]; T3 h-T3 h 30): 106.61 % of respective basal
- HVA (% of respective basal) MEAN ([1]; T4 h 30-T5 h): 102.76 % of respective basal
- HVA (% of respective basal) MEAN ([1]; T4 h-T4 h 30): 127.17 % of respective basal
- HVA (% of respective basal) MEAN ([1]; T5 h 30-T6 h): 109.97 % of respective basal
- HVA (% of respective basal) MEAN ([1]; T5 h-T5 h 30): 112.73 % of respective basal
- HVA (% of respective basal) MEAN ([1]; T6 h 30-T7 h): 113.53 % of respective basal
- HVA (% of respective basal) MEAN ([1]; T6 h-T6 h 30): 108.85 % of respective basal
- HVA (% of respective basal) MEAN ([1]; T-30 min-T0 (before administration)): 101.64 % of respective basal
- HVA (% of respective basal) MEAN ([1]; T-1 h 30-T-1 h (before administration)): 97.88 % of respective basal
- HVA (% of respective basal) MEAN ([1]; T-1 h-T-30 min (before administration)): 100.48 % of respective basal
- order of effects in electrophysiological studies (5-HT1A, 5-HTT, 5-HT2A): 5-HT1A>5-HTT>5-HT2A>postsynaptic 5-HT1A
